Measured values published in patent publication US9611284B2, “Prostaglandin-bisphosphonate conjugate compounds, methods of making same, and uses thereof” (Simon Fraser University, priority 2010, dated 2017).

Columns and labels:
[1] = Uptake and release of radiolabelled conjugate 8, tritium levels in long bones; format: in vivo, female Sprauge-Dawley rats; conditions: rat, 5 mg/kg intravenous
Protocol: Uptake and Release of Conjugate 8: A solution was prepared of carbamate conjugate 8 (specific activity=15.4 mCi/mmol) in PBS. The conjugate was administered intravenously to female Sprauge-Dawley rats at 5 mg/kg. Triplicate sets of rats were euthanized at 1, 7, 14 and 28 days and tritium levels in bone were measured by incineration of the long bones in a biological oxidizer. After an initial 1 day uptake of 9.4%, 5.6% of the initial dose remained after 14 days.

[2] = Chemical stability of conjugate 8 in 0.1 N NaOH; format: physicochemical; conditions: room temperature, 24 hours

SMILES: CCOC(=O)CCCCCCN1C(=O)CC[C@@H]1/C=C/[C@@H](OC(=O)NCCCC(O)(P(=O)(O)O)P(=O)(O)O)C(F)(F)c1ccccc1 [Conjugate 8]
- % of Initial 3H Dose Remaining ([1]; 1 day): 9.4%
- % of Initial 3H Dose Remaining ([1]; 7 days): 8.0%
- % of Initial 3H Dose Remaining ([1]; 14 days, 5 mg/kg): 6.2%
- % of Initial 3H Dose Remaining ([1]; 28 days): 5.6%
- hydrolysis of the carbamate coupling [2]: not hydrolyzed
- hydrolysis of the ethyl ester [2]: essentially quantitatively
